Holding throughout (format): cell-based
Series [1] relates to normal human dermal fibroblasts (NHDF). The method, then:
Mammalian cell cytotoxicity assays were performed using two primary human cell lines: renal proximal tubule epithelial cells (RPTEC—Cambrex CC-2553) and normal human dermal fibroblasts (NHDF—Cambrex CC-2509). Cells were plated at 3,000 cells/well (RPTEC) or 5,000 cells/well (NHDF) in 96-well plates and incubated overnight at 37° C. The compounds were added to the wells, and the cells were incubated for 4 days. Alomar Blue was added to one set of plates and incubated for 4 hours. The plates were read when the compound was added (time zero) and at the end of the study. Fluorescence was read using 530 nm (excitation) and 590 nm (emission) according to the manufacturer's instructions.

For series [2], the system named is renal proximal tubule epithelial cells (RPTEC). The experiment in a line: in vitro. The method, then:
(§1) Cells were plated at 3,000 cells/well (RPTEC) or 5,000 cells/well (NHDF) in 96-well plates and incubated overnight at 37° C. The compounds were added to the wells, and the cells were incubated for 4 days. Alomar Blue was added to one set of plates and incubated for 4 hours. The plates were read when the compound was added (time zero) and at the end of the study. Fluorescence was read using 530 nm (excitation) and 590 nm (emission) according to the manufacturer's instructions.

Series [3] in a line: in vitro. The conditions noted are these: human. The method, then:
as §1

Series [4] concerns erythrocytes. Briefly: Erythrocyte lysis assay. The conditions noted are these: overnight 37° C., hematocrit 1%. The method, then:
After incubation, the plates were centrifuged and the supernatant transferred to flat-bottomed 96-well plates. The supernatant was assayed using the QuantiChrom Hemoglobin kit according to the manufacturer's instructions. The IC50 values were calculated using GraphPad Prism.

The test system of series [5] is Escherichia coli. The experiment in a line: Minimum inhibitory concentration assay. The conditions noted are these: Mueller-Hinton broth, 18-24 hours at 35° C.; unit assumed. The method, then: (§2) The minimum inhibitory concentration (MIC) assay determines the lowest concentration of an antimicrobial agent required to inhibit the growth of test organisms after incubation. MIC assays were performed against an internal standard panel of organisms to identify compounds with antimicrobial activity. The MIC assay was subsequently repeated against other specialized microbial panels. Assays were conducted against the following clinically relevant microorganisms: Staphylococcus aureus subsp. aureus, Staphylococcus epidermis, Escherichia coli, Pseudomonas aeruginosa, Haemophilius influenzae. The compounds were tested for bacteriocidal activity, time course of killing, toxicity against tissue culture cells grown in vitro, and in some cases were tested for antimicrobial activity in vivo. The MIC assays were performed according to the Performance Standards for Antimicrobial Susceptibility Testing, 2006, vol. M100-S15, Fifteenth Informational Supplement, NCCLS, 940 West Valley Road, Suite 1400, Wayne, Pa. 19087. […] The solution was then filter-sterilized through a 0.22 μm filter. Two-fold serial dilutions of polymer were prepared in Mueller-Hinton broth with cations aliquotted into 96-well microtiter plates. The plates were then inoculated with 5×10^5 cells/mL of target organism and incubated 18-24 hours at 35° C. […] The MIC value is the lowest concentration of compound that inhibits growth; accordingly, a higher MIC value indicates less potency where a lower MIC valued indicated more potency.

Series [6] concerns Haemophilus influenzae. The experiment in a line: Minimum inhibitory concentration assay. The note with it: Mueller-Hinton broth, 18-24 hours at 35° C.; unit assumed. The method, then: as §2
Series [7] relates to Pseudomonas aeruginosa. Briefly: Minimum inhibitory concentration assay. The note with it: Mueller-Hinton broth, 18-24 hours at 35° C.; unit assumed. The protocol:
as §2

The subject of series [8] is Staphylococcus aureus subsp. aureus. The experiment in a line: Minimum inhibitory concentration assay. The note with it: Mueller-Hinton broth, 18-24 hours at 35° C.; unit assumed. The method, then: as §2
In series [9] the test system is Staphylococcus epidermis. The experiment in a line: Minimum inhibitory concentration assay. The note with it: Mueller-Hinton broth, 18-24 hours at 35° C.; unit assumed. The method, then: as §2
Series [10] concerns human lung epithelial Carcinoma cell line (A 549). Briefly: Cytotoxicity assay, human lung epithelial cells. Also on record: unit not given here. The note with it: A 549, 96 hours, CellTiter-Glo.

Bounds are passed on as bounds.

Regarding “Poly(4,4′-dipiperidinebispropanoic acid-3,3′-diamino-dipropylamine) [Poly(4,4′-dipiperidinebispropanoic acid-3,3′-diamino-dipropy]”, in series [1], the “Cytotoxicity (Human Dermal Fibroblast IC50)” value is recorded as 2.
On the same count and under the same terms, next, “Poly(4,4-trimethylene dipiperidine bispropanoic acid-diaminoethane)”: 178.
Still for that read-out and setting: with “Poly(4,4′-trimethylenedipiperidinebispropionic acid-2-dydroxy 1,3-diaminopropane)” the figure was 50.
Consider “Methyl ester terminated Poly(4,4-trimethylene dipiperidinebispropanoic acid-diaminopropane)”, for which the Cytotoxicity (Kidney Epithelial IC50) in series [2] was determined as 1.5 µg/mL.
In series [3], `NCCCNC(=O)CCN1CCC(CCCC2CCN(CCC(=O)NCCCN)CC2)CC1` [4,4-trimethylene dipiperidinebispropanoic acid-diaminopropane] yielded a CC50 at 4 days greater than 512 µg/mL. In addition, the IC50 at 4 days in series [3] (RPTEC, 4 days incubation, Alomar Blue, read-out: Cytotoxicity (Kidney Epithelial IC50)) was greater than 512 µg/mL. The IC50 in series [4] (Erythrocyte, read-out: Erythrocyte Lysis (Hemolysis IC50)) is greater than 3200 µg/mL. This molecule had an Escherichia coli (MIC) in series [5] greater than 128 µg/mL. The Haemophilus influenzae (MIC) in series [6] is greater than 128 µg/mL. The molecule further had a Pseudomonas aeruginosa (MIC) in series [7] greater than 128 µg/mL. In addition, the Staphylococcus aureus subsp. aureus (MIC) in series [8] was greater than 128 µg/mL. The molecule further yielded a Staphylococcus epidermis (MIC) in series [9] greater than 128 µg/mL.
Regarding “Poly(piperazinebispropanoic acid-1,4-diaminobutane)”, the “Cytotoxicity (Human Dermal Fibroblast IC50)” value in series [1] is 1905.
The same measure, in the same setting: next, “Poly(piperazinebispropanoic acid-2,2-diaminodiethylamine)”: 1111.6.
For the molecule “Poly(4,4′-trimethylenedipiperidinebispropionic acid-bis(4-aminobutyl)ether)”, in [1], the “Cytotoxicity (Human Dermal Fibroblast IC50)” value was 3.
As for “Poly(piperazinebispropanoic acid-3,3′ diamino-N-methyl-dipropylamine)”, the Cytotoxicity (Kidney Epithelial IC50) in [2] stood at 5.3 µg/mL.
“Poly(piperazinebispropanoic acid-N(3-aminopropyl)1,3-propanediamine)”: in [1], the “Cytotoxicity (Human Dermal Fibroblast IC50)” value stood at 15.3.
Same read-out and setting: with “Poly(4,4-trimethylene dipiperidinebispropanoic acid 4,4′-dipiperidine)” the figure was 2.0.
In turn, “Carboxy terminated Poly(4,4-trimethylene dipiperidinebispropanoic acid-diaminopropane)” yielded a Cytotoxicity (Kidney Epithelial IC50) in [2] of 43 µg/mL.
With “Poly (4,4′-trimethylene dipiperidine bispropanoic acid--N,N′-dimethyl-1,3-diaminopropane)”, the “Cytotoxicity (Human Dermal Fibroblast IC50)” value in [1] is 5.
On the same count and under the same terms, next, “Poly(4,4′-dipiperidinebispropionic acid-1,3-diaminopropane)”: 7; “Poly(4,4′-dipiperidinebispropanoic acid-3,3′-diamino-N-methyl-dipropylamine) [Poly(4,4′-dipiperidinebispropanoic acid-3,3′-diamino-N-methy] [listing 1 of 2 here]”: 2; “Poly(4,4′-dipiperidinebispropionic acid-1,4-diaminobutane)”: 5.
Molecule “Poly(4,4′-trimethylenedipiperidine-1,3-diamninopropane-N,N′-di-3-propionic acid)” displayed a Cytotoxicity (Kidney Epithelial IC50) in [2] of 2 µg/mL. In series [1], the “Cytotoxicity (Human Dermal Fibroblast IC50)” value was determined as 2.
In the case of “Poly(4,4′-dipiperidinebispropanoic acid-3,3′-diamino-N-methyl-dipropylamine) [Poly(4,4′-dipiperidinebispropanoic acid-3,3′-diamino-N-methy] [listing 2 of 2 here]”, the “Cytotoxicity (Human Dermal Fibroblast IC50)” value in series [1] is given as 3.
On to “Poly(piperazinebispropanoic acid-N-methyl-2,2-diaminodiethylamine)”, for which the “Cytotoxicity (Human Dermal Fibroblast IC50)” value in [1] is reported as 3068.6.
In turn, “4,4′-trimethylene dipiperidinebispropanoic acid-diaminopropane heptamer” displayed a Cytotoxicity (Kidney Epithelial IC50) in series [2] of 190 µg/mL. For the same molecule, in series [10], the “Lung Epi IC50” value is 418.0. Also, the “Erythrocyte Lysis (Hemolysis IC50)” value in [4] was greater than 3200. Besides, the Escherichia coli (MIC) in [5] was determined as 8 µg/mL. In series [6], this molecule had a Haemophilus influenzae (MIC) of 128 µg/mL. The Pseudomonas aeruginosa (MIC) in series [7] is greater than 128 µg/mL. In [8], this molecule returned a Staphylococcus aureus subsp. aureus (MIC) of 2 µg/mL. The molecule further gave a Staphylococcus epidermis (MIC) in [9] of 1 µg/mL.
Turning to “4,4′-trimethylene dipiperidinebispropanoic acid-diaminopropane pentamer”, the “Lung Epi IC50” value in series [10] is on record as 259.0. Besides, in series [4], the “Erythrocyte Lysis (Hemolysis IC50)” value was greater than 3200. In addition, in series [5], the Escherichia coli (MIC) came to 16 µg/mL. The molecule also showed a Haemophilus influenzae (MIC) in [6] of 64 µg/mL. The molecule also came in with a Pseudomonas aeruginosa (MIC) in series [7] greater than 128 µg/mL. In addition, the Staphylococcus aureus subsp. aureus (MIC) in [8] was found to be 16 µg/mL. For the same molecule, the Staphylococcus epidermis (MIC) in series [9] was 1 µg/mL.
In the case of “Poly(4,4′-trimethylene dipiperidinebispropanoic acid-1,4-benzyldiamine)”, the “Cytotoxicity (Human Dermal Fibroblast IC50)” value in series [1] came out at 4.703.
The molecule “4-guanidinobenzene terminated Poly(4,4-trimethylene dipiperidinebispropanoic acid-diaminopropane)” came in with a Cytotoxicity (Kidney Epithelial IC50) in series [2] of 6 µg/mL.
As to “Poly(4,4-trimethylene dipiperidinebispropanoic acid-diaminopropane)”, in [1], the “Cytotoxicity (Human Dermal Fibroblast IC50)” value is on record as 141.3.
Turning to “Poly(4,4-trimethylene dipiperidinebispropanoic acid-N(2-aminoethyl)-diaminoethane)”, the “Cytotoxicity (Human Dermal Fibroblast IC50)” value in [1] is listed as 1.7.
On the same count and under the same terms, next, “Poly (4,4′-trimethylene dipiperidine bispropanoic acid-4,4′-trimethylene dipiperidine)”: 3.

(Values after patent US9326994B2, “Amine functional polyamides” (GENZYME CORPORATION, priority 2013, dated 2016).)
